The text below walks through data of patent US5914339A, “Substituted 1,3-benzodioxoles” (American Home Products Corporation, priority 1997, dated 1999).

The subject of assay [1] is human β-adrenergic receptors. The assay is described as follows: cAMP elevation in all 3 transfected CHO cell types. The settings on record: 10 μM, all 3 cell types. The format is cell-based. Here is the method:
(§1) The activity of the test compounds on human β-adrenergic receptors was determined with Chinese hamster ovary (CHO) cells transfected with human β2, or β1 adrenergic receptors. Agonist activity is indicated by increased cAMP levels in the CHO cells. Selectivity of the test compounds for the β3 receptor was assessed by comparison with results in β2 and β1 adrenergic receptor transfected cells.
4). […]

Assay [2] deals with human β1 adrenergic receptor (Homo sapiens, UniProt P08588). Nature of the assay: Human β1 adrenergic receptor agonist activity, cAMP increase in transfected CHO cells. Conditions: cAMP in CHO cells; selected compounds; read-out: β1: EC50. In kind it is cell-based. The protocol:
as §1
1). Chinese hamster ovary (CHO) cells transfected with human β2, or β1 adrenergic receptors were used in the assay.
2). Cells were grown to confluent conditions in 24 well plates.
3). Drugs were dissolved in DMSO at a concentration of 10 μM.
4). Cells were incubated with drug at 10 nM concentration for 10 min at 37° C.
5). Cell cAMP concentrations were assayed using a scintillation proximity assay kit from Amersham Corp., Chicago, Ill.
6). Activities for the test compounds are expressed as a percentage of the isoproterenol response.
Production of the CHO cells transfected with human β2, or β1 adrenergic receptors, and compound test procedures utilizing the CHO cells, are described by Emorine et al. in their article "Molecular Characterization of the Human Beta3 -Adrenergic Receptor", Science 1989, 245(8), 1118-1121 and by Muzzin et al. in the article "An Adipose Tissue-Specific Beta3 -Adrenergic Receptor", J. Biol. Chem.1991, 266, 24053-24058.
^a Human β receptors expressed in Chinese hamster ovary cells,
compounds tested at 10 nM, results expressed as % of isoproterenol
activity (increase in cAMP) at 10 μM. EC50 (μM) values
determined for selected compounds.

Assay [3] addresses human β2 adrenergic receptor (Homo sapiens, UniProt P07550). The assay is described as follows: cell-based. Conditions: cAMP in CHO cells; selected compounds; read-out: β2: EC50. In a few lines:
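CHO cells transfected with human β1 or β2 adrenergic receptors were grown to confluence and exposed to compound at 10 nM for 10 min at 37° C. Cellular cAMP was measured by scintillation proximity assay. Activity is expressed as % of the response to 10 μM isoproterenol; EC50 (μM) was determined for selected compounds.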

The subject of a further assay is plasma free fatty acids. The assay is described as follows: Effects on plasma free fatty acid levels in rats. In kind it is in vivo, rat. The settings on record: Rattus norvegicus, 50 min; elevation of plasma free fatty acids, oral gavage; selected compounds; read-out: Rat Free Fatty Acid: ED50. The protocol: Rats respond to a single oral dose of β3 agonists by increasing plasma free fatty acids (FFA) in response to β3 receptor stimulation on the plasma membrane of the fat cell. 5-{2-[2-(3-Chloro-phenyl)-2-hydroxy-ethylamino]-propyl}-benzo[1,3]dioxole- 2,2-dicarboxylic acid diisopropyl ester (Standard 2) was used as a standard compound. All test compounds were dosed at 0.1 mg/kg and compared to the response by Standard 2.
1). Drugs were dissolved in DMSO at 10 mg/ml.
2). Twenty μl of the DMSO-drug solution was added to 10 mL methyl cellulose:tween-80 (0.5%:0.1%) for a final concentration of 20 μg/mL.
3). Methyl cellulose:tween-80 drug suspension was given via gavage (1 mL/200 g body weight; or 0.1 mg/kg) to rats and blood was collected 50 min later.
4). Plasma was analyzed for free fatty acids using a kit supplied by Biochemical Diagnostics Inc. (Brentwood, N.Y.).
5). Drug response was calculated from the formula below. [formula]
^b Elevation of plasma free fatty acids in rats, compounds tested at
0.1 mg/kg, results expressed as % of
5{2[2(3-Chloro-phenyl)-2-hydroxy-ethylaminopropylbenzo[1,3dioxole-2,2-dic
rboxylic acid diisopropyl ester response (78% increase) at 0.1 mg/kg.
ED50 (mg/kg) values determined for selected compounds.

A further assay concerns plasma glucose. The assay is described as follows: Effects on hyperglycemia in db/db mice, plasma glucose. The format is in vivo, mouse (male, db/db (C57BL/KsJ)). The settings on record: Mus musculus, po, 96 h; p.o., 4 days, mean of 2 and 4 h values on Day 4; footnote c gives mg/kg/day; read-out: db/db Mice Plasma Glucose: ED50 for lowering of plasma glucose.

human β1 adrenergic receptor, sequence (P08588 whole entry): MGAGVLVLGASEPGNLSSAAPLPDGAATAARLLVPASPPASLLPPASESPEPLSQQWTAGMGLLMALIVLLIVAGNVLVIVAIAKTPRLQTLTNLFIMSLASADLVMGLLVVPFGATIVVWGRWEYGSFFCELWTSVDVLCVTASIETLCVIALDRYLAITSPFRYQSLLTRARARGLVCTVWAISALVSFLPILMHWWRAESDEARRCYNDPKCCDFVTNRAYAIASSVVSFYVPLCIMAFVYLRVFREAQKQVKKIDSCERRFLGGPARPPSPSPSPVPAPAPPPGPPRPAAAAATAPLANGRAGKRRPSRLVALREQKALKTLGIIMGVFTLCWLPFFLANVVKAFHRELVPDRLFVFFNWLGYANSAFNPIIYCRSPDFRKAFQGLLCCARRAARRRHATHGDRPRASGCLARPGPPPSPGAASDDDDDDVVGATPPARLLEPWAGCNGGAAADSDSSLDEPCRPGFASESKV
human β2 adrenergic receptor, sequence (P07550 whole entry): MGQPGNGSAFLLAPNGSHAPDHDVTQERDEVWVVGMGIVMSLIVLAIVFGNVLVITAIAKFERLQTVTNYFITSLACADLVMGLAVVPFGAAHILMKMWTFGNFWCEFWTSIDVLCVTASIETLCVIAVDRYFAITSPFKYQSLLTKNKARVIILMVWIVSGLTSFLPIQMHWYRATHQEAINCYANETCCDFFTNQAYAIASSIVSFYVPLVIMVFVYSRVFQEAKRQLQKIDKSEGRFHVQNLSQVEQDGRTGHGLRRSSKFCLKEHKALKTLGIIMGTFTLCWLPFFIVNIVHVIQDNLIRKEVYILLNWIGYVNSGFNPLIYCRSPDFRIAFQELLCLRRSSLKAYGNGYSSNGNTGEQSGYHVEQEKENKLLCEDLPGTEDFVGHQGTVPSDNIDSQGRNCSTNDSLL

Take `CC(C)NCC(O)c1ccc(O)c(O)c1` (stereo not shown) [Isoproterenol]: in assay [1], the cAMP elevation result is “maximal cAMP elevation”.
Turning to `CC(Cc1ccc2c(c1)OC(C(=O)OCCC(C)(C)C)(C(=O)OCCC(C)(C)C)O2)NCC(O)c1cccc(Cl)c1` (stereo not shown) [Example 33, 5-{2-[2-(3-Chloro-phenyl)-2-hydroxy-ethylamino]-propyl}-benzo[1,3]dioxole-2,2-dicarboxylic acid bis-(3,3-dimethyl-butyl) ester], the EC50 in assay [2] came out at 5900 nM; in assay [3], 100 nM. Further, the figures for the ED50 in the assay with plasma free fatty acids and in the assay on plasma glucose were 0.08 mg/kg and 0.201 mg/kg, respectively.
In the case of `CC(C)CCOC(=O)C1(C(=O)OCCC(C)C)Oc2ccc(C[C@@H](C)NC[C@H](O)c3cccc(Cl)c3)cc2O1` [Example 75, 5-{(2R)-2-[(2R)-2-(3-Chloro-phenyl)-2-hydroxy-ethylamino]-propyl}-benzo[1,3]dioxole-2,2-dicarboxylic acid bis-(3-methylbutyl)ester], the EC50 turned out to be 5400 nM in assay [2] and 58 nM in assay [3]. In addition, the ED50 with plasma free fatty acids was 0.026 mg/kg; with plasma glucose it was 0.11 mg/kg.
The matching figures for `C[C@H](Cc1ccc2c(c1)OC(C(=O)OCC(C)(C)C)(C(=O)OCC(C)(C)C)O2)NC[C@H](O)c1cccc(Cl)c1` [Example 78, 5-{(2R)-2-[(2R)-2-(3-Chloro-phenyl)-2-hydroxy-ethylamino]-propyl}-benzo[1,3]dioxole-2,2-dicarboxylic acid bis-(2,2-dimethyl-propyl) ester]: 5000 nM, 325 nM, 0.027 mg/kg and 0.028 mg/kg.
